Measurements from patent US20040175691A1, “Use of the KCNQ2 and KCNQ3 genes for the discovery of agents useful in the treatment of neurological disorders” (priority 1998, published 2004).

Tests used:
[1] = molecular target: T1, hKCNQ2 potassium channel (Homo sapiens, UniProt O43526, DEL417-446); test: Membrane potential-evoked fluorescence (FLIPR, DiBAC) in HEK 293E cells stably expressing hKCNQ2; assay type: cell-based; conditions: FIG. 7
T1 construct: Full-length hKCNQ2 cDNAs were amplified from adult human brain cDNA; expressed in transfected cells; host or cells: 293 EBNA (HEK 293E) cells, episomal plasmid pm3AR-hKCNQ2-1, hygromycin B selection
Experimental: The ability of KCNQ2 modulators to alter membrane potential was assessed using a fluorescence imaging plate reader (FLIPR). Cultured HEK 293E cells expressing hKCNQ2 channels are plated on poly-D-lysine-coated 96-well Costar microplates (#3603) at 300,000-750,000 cells/ml and allowed to reach confluence in DMEM (with 10% FBS and 250 ug/ml hygromycin B) at 37° C. and 5% CO2. After reaching confluence, growth medium is removed, replaced with a standard Hank's balanced salt solution containing 5 uM dibac(4)3, bis-oxonol (Molecular Probes # B-438) at 37° C. The cell plate is then placed in the recording chamber (equilibrated to 37° C.) of a fluorescence imaging plate reader (FLIPR; Molecular Devices) along with two drug plates (one containing standard Hank's balanced salt solution+dibac and the other containing standard Hank's balanced salt solution+dibac+test compound at various experimental concentrations).
These cells were loaded with the voltage-sensitive fluorescent dye, DiBAC, that distributes across cell membranes in a voltage-dependent manner. As cells depolarize (become more positive inside), more dye enters the cells and an increase in fluorescence occurs.
In FIG. 7, the relative effects of several M-current modulators on the flourescence of HEK 293E cells stably expressing the hKCNQ2 potassium channel is shown. These cells were loaded with the voltage-sensitive fluorescent dye, DiBAC, that distributes across cell membranes in a voltage-dependent manner. As cells depolarize, more dye enters the cells and an increase in fluorescence occurs. Conversely, as cells hyperpolarize (become more negative inside), more dye leaves the cells and a decrease in fluorescence occurs.

[2] = molecular target: KCNQ2 (Homo sapiens, UniProt O43526, DEL417-446); test: Blockade of KCNQ2 channels expressed in Xenopus oocytes; assay type: cell-based; design: Full-length KCNQ2 cDNAs were amplified from adult human brain cDNA; expressed in transfected cells; host or cells: Xenopus oocytes injected with cRNA; conditions: homomultimeric KCNQ2, oocytes; Hill coefficient set to unity; read-out: KD for TEA block of KCNQ2 channels
Experimental: (§1) Method: Full-length KCNQ2 cDNAs were amplified from adult human brain cDNA using the following primers ([…], […]) with the Expand Fidelity enzyme mixture (Boehringer Mannheim, Indianapolis). […] This region is also alternatively spliced in the KCNQ2 cDNA clone described by Biervert et al. (1998). Preparation, injection of cRNA and recording from oocytes was performed at room temperature as described previously (Dixon et al. 1996). The standard extracellular recording solution contained: 82 mM NaCl, 2 mM KCl, 1.8 mM CaCl2, 1 mM MgCl2, and 5 mM Na-HEPES (pH 7.6). Data collection and analysis were performed using pClamp software (Axon Instruments, Foster City, Calif.).
IC50 values are all expressed in μM, mean±s.e.m.

[3] = molecular target: T2, KCNQ2 + KCNQ3 (UniProt O43526+O88944, DEL417-446); test: Blockade of KCNQ2+KCNQ3 channels expressed in Xenopus oocytes; assay type: cell-based, human KCNQ2, rat KCNQ3
T2 construct: Full-length KCNQ2 cDNAs were amplified from adult human brain cDNA; Multiple full-length cDNA clones were amplified in independent PCR reactions from rat SCG cDNA; expressed in transfected cells; host or cells: Xenopus oocytes injected with cRNA
Experimental: as §1
Holding potential was −60 mV and the cell was repetitively depolarized to −30 mV for 1 minute to reach steady-state blockade. Tail currents were recorded at −50 mV.
IC50 values are all expressed in μM, mean±s.e.m. In cases where the IC50 values were greater than 100 μM the exact value is not reported due to limited solubility in the drug.

[4] = molecular target: T3, M-current (Rattus norvegicus, UniProt O88943+O88944); test: Blockade of native M-current in SCG neurons (voltage clamp, intact ganglia); assay type: cell-based; conditions: rat sympathetic neurons; read-out: KD for TEA blockade of native M-current
T3 construct: from tissue
Experimental: Method: Recordings of the M-current in sympathetic neurons in intact ganglia were performed at room temperature as described previously (Wang and McKinnon, 1995). The standard extracellular recording solution was: NaCl (133 mM, KCl (4.7 mM), NaH2PO4 (1.3 mM), NaHCO3 (16.3 mM), CaCl2 (2 mM), MgCl2 (1.2 mM) and glucose (1.4 g/liter), bubbled with 95% O2-5% CO2 to give pH 7.2-7.4.
A. Blockade of M-current in SCG neurons by XE991. Holding potential was −30 mV and step potential was −50 mV for 1 second. The shift in holding current following drug application is due to the inhibition of M-current activated at the holding potential.
Maximal block of native M-current was 93±2%. Data points are averages and error bars represent s.e.m.

Relative effect on fluorescence / membrane potential ([1]; 100 μM)	Compound	Relative effect on fluorescence / membrane potential ([1]; 3 μM)	Kd [2]	Kd ([3]; co-injection of KCNQ2 and KCNQ3 mRNAs, read-out: KD for TEA block of KCNQ2+KCNQ3 channels)	Hill coefficient of TEA block of KCNQ2+KCNQ3 channels ([3]; dose response fitted with Hill equation)	Kd [4]
	O=C1c2ccccc2C(Cc2ccnc(F)c2)(Cc2ccnc(F)c2)c2ccccc21 [XR543]	more membrane depolarization than linopirdine				
	CC[N+](CC)(CC)CC [TEA, tetraethylammonium]		0.16 ± 0.02 mM	3.5 ± 0.7 mM	0.82±0.03	6.1 mM
apparent membrane hyperpolarization	Nc1ccc(CC2(Cc3ccc(N)cc3)C(=O)N(c3ccccc3)c3ccccc32)cc1 [X7315]	no effect				
